These results are taken from patent US20220323406A1, “METHODS AND COMPOSITIONS FOR DIFFERENTIATING STEM CELLS” (Massachusetts Institute of Technology, priority 2019, published 2022).

Structures are written as SMILES. Structures can show the parent of a compound that is named as a salt.

One assay concerns ENR+CD organoids. Description: Primary screen: ATP (CellTiter-Glo 3D, CTG) cell number/viability, 2.5-D 384-well ENR+CD organoids.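 Further: compounds given at plating and again on day 3 over a 6-day differentiation from ENR+CV stem-cell-enriched precursors, ATP measured on day 6, plate median as control.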 In general terms: In ATP-based viability assays light output follows the ATP content of the culture.
Assay [1] deals with ENR+CD organoids (ISC to Paneth cell differentiation). As to the kind of experiment: Primary screen: basal (non-stimulated) lysozyme secretion LYZ.NS, 2.5-D 384-well ENR+CD organoid differentiation. In kind it is cell-based, mouse. From the text:
(§1) High-throughput screening.

For assay [2] the test system is unchanged. As to the kind of experiment: Primary screen: CCh-stimulated lysozyme secretion LYZ.S, 2.5-D 384-well ENR+CD organoid differentiation. Format: cell-based, mouse. Conditions: primary screen.
From the text: as §1

Setting [3] is: primary screen, dose 0.08 uM, standard z score.
[4] abbreviates: primary screen, dose 0.40 uM, standard z score.
Where [5] appears, read: primary screen, dose 2.00 uM, standard z score.
Setting [6] is: primary screen, dose 10.00 uM, standard z score.
Setting [7] is: primary screen; dose 0.08 uM; FC vs plate median.
Where [8] appears, read: primary screen; dose 0.40 uM; FC vs plate median.
[9] abbreviates: primary screen; dose 2.00 uM; FC vs plate median.
[10] abbreviates: primary screen; dose 10.00 uM; FC vs plate median.
[11] abbreviates: dose 0.08 uM, FC vs plate median.
Where [12] appears, read: dose 0.40 uM, FC vs plate median.
Where [13] appears, read: dose 2.00 uM, FC vs plate median.
Setting [14] is: dose 10.00 uM, FC vs plate median.
Where [15] appears, read: primary screen, dose 0.08 uM, FC relative to plate median.
Setting [16] is: primary screen, dose 0.40 uM, FC relative to plate median.
The mark [17] stands for this setting: primary screen, dose 2.00 uM, FC relative to plate median.
Setting [18] is: primary screen, dose 10.00 uM, FC relative to plate median.
The mark [19] stands for this setting: primary screen, standard z score, dose 0.08 uM.
The mark [20] stands for this setting: primary screen, standard z score, dose 0.40 uM.
Where [21] appears, read: primary screen, standard z score, dose 2.00 uM.
[22] abbreviates: primary screen, standard z score, dose 10.00 uM.

As for `Fc1cc(F)c2c(c1)[C@H]1C=CC[C@H]1C(c1cccnc1)N2` (mixture of isomers) [Golgicide A], the “Dose.FC.CTG (log2 fold change)” value with ENR+CD organoids (primary screen, dose 0.08 uM) is 0.167; in the assay on ENR+CD organoids (primary screen, dose 0.40 uM), 0.227; with ENR+CD organoids (primary screen, dose 2.00 uM), 0.339; with ENR+CD organoids (primary screen, dose 10.00 uM), −0.220. For the same molecule, the “Z.CTG (standard z score)” value with ENR+CD organoids (primary screen, dose 0.08 uM) is listed as 0.398; in the assay with ENR+CD organoids (primary screen, dose 0.40 uM), 0.541; in the assay with ENR+CD organoids (primary screen, dose 2.00 uM), 0.810; in the assay with ENR+CD organoids (primary screen, dose 10.00 uM), −0.526. Also, the “Dose.FC.LYZ.NS (log2 fold change)” value in assay [1] (primary screen, dose 0.08 uM) is recorded as 0.267; in assay [1] (primary screen, dose 0.40 uM) it was 0.066; in assay [1] (primary screen, dose 2.00 uM), 0.171; in assay [1] (primary screen, dose 10.00 uM) it was −0.161. Also, the “Z.LYZ.NS (standard z score)” value in assay [1] (primary screen, dose 0.08 uM) is on record as 2.325; in assay [1] (primary screen, dose 0.40 uM), 0.576; in assay [1] (primary screen, dose 2.00 uM), 1.492; in assay [1] (primary screen, dose 10.00 uM) it was −1.402. Moreover, the “Dose.FC.LYZ.S (log2 fold change)” value in assay [2] (dose 0.08 uM) is 0.146; in assay [2] (dose 0.40 uM), 0.202; in assay [2] (dose 2.00 uM), 0.076; in assay [2] (dose 10.00 uM), −0.256.
For `O=C(Nc1ccccc1)N1CCN(c2nc(-c3ccccc3)ns2)CC1` [JNJ-1661010], the “Dose.FC.CTG (log2 fold change)” value with ENR+CD organoids (primary screen, dose 0.08 uM) is listed as −0.094; in the assay on ENR+CD organoids (primary screen, dose 0.40 uM) it was −0.262; in the assay on ENR+CD organoids (primary screen, dose 2.00 uM), −0.055; in the assay with ENR+CD organoids (primary screen, dose 10.00 uM), −0.145. The “Z.CTG (standard z score)” value is −0.225 in the assay with ENR+CD organoids (primary screen, dose 0.08 uM); −0.625 with ENR+CD organoids (primary screen, dose 0.40 uM); −0.131 in the assay on ENR+CD organoids (primary screen, dose 2.00 uM); −0.346 in the assay with ENR+CD organoids (primary screen, dose 10.00 uM). Further, the “Dose.FC.LYZ.NS (log2 fold change)” value in assay [1] (primary screen, dose 0.08 uM) is 0.122; in assay [1] (primary screen, dose 0.40 uM), 0.075; in assay [1] (primary screen, dose 2.00 uM), 0.103; in assay [1] (primary screen, dose 10.00 uM), 0.047. Moreover, the “Z.LYZ.NS (standard z score)” value in assay [1] (primary screen, dose 0.08 uM) came out at 1.066; in assay [1] (primary screen, dose 0.40 uM), 0.653; in assay [1] (primary screen, dose 2.00 uM), 0.897; in assay [1] (primary screen, dose 10.00 uM) it was 0.406. Moreover, the “Dose.FC.LYZ.S (log2 fold change)” value in assay [2] (dose 0.08 uM) is listed as 0.135; in assay [2] (dose 0.40 uM), 0.041; in assay [2] (dose 2.00 uM) it was −0.063; in assay [2] (dose 10.00 uM) it was −0.068.
`C=CCc1cccc(/C=N/NC(=O)CN2CCN(Cc3ccccc3)CC2)c1O` [PAC-1]: the Z.CTG with ENR+CD organoids (setting [3]) is 0.228; in the assay with ENR+CD organoids (setting [4]), 0.270; in the assay with ENR+CD organoids (setting [5]) it was −0.576; in the assay on ENR+CD organoids (setting [6]) it was 0.004. For the same molecule, the Dose.FC.CTG is recorded as 0.095 log2 fold change in the assay with ENR+CD organoids (setting [7]), 0.113 log2 fold change in the assay with ENR+CD organoids (setting [8]), −0.241 log2 fold change in the assay with ENR+CD organoids (setting [9]) and 0.002 log2 fold change in the assay on ENR+CD organoids (setting [10]). Besides, the Z.LYZ.NS in assay [1] (setting [3]) turned out to be 1.365; in assay [1] (setting [4]) it was 0.457; in assay [1] (setting [5]), 1.094; in assay [1] (setting [6]) it was 0.596. Moreover, the Dose.FC.LYZ.NS in assay [1] (setting [7]) is recorded as 0.157 log2 fold change; in assay [1] (setting [8]), 0.053 log2 fold change; in assay [1] (setting [9]), 0.126 log2 fold change; in assay [1] (setting [10]), 0.068 log2 fold change. The Dose.FC.LYZ.S in assay [2] (setting [11]) was 0.128 log2 fold change; in assay [2] (setting [12]) it was 0.059 log2 fold change; in assay [2] (setting [13]), −0.006 log2 fold change; in assay [2] (setting [14]) it was 0.092 log2 fold change.
Regarding `COc1cc(Br)c(Nc2nc(-c3c(C)nc4ncccn34)cs2)c(Br)c1` [PTC-209], the Dose.FC.CTG with ENR+CD organoids (setting [15]) was −0.108 log2 fold change; in the assay with ENR+CD organoids (setting [16]), −0.207 log2 fold change; in the assay with ENR+CD organoids (setting [17]), −1.422 log2 fold change; in the assay with ENR+CD organoids (setting [18]), −1.553 log2 fold change. For the same molecule, the Z.CTG was −0.259 in the assay with ENR+CD organoids (setting [3]), −0.495 in the assay on ENR+CD organoids (setting [4]), −3.397 with ENR+CD organoids (setting [5]) and −3.708 with ENR+CD organoids (setting [6]). Besides, the Dose.FC.LYZ.NS in assay [1] (setting [15]) was 0.034 log2 fold change; in assay [1] (setting [16]) it was −0.058 log2 fold change; in assay [1] (setting [17]) it was −0.201 log2 fold change; in assay [1] (setting [18]), −0.227 log2 fold change. In addition, the Z.LYZ.NS in assay [1] (setting [3]) is recorded as 0.294; in assay [1] (setting [4]), −0.509; in assay [1] (setting [5]) it was −1.753; in assay [1] (setting [6]) it was −1.975. Besides, the Dose.FC.LYZ.S in assay [2] (dose 0.08 uM, FC relative to plate median) is listed as 0.007 log2 fold change; in assay [2] (dose 0.40 uM, FC relative to plate median) it was 0.045 log2 fold change; in assay [2] (dose 2.00 uM, FC relative to plate median) it was −0.289 log2 fold change; in assay [2] (dose 10.00 uM, FC relative to plate median), −0.300 log2 fold change.
Regarding `O=C(O)Cn1nnc(-c2cc(N3CCC(Oc4cc(F)ccc4Br)CC3)no2)n1` [MK-8245], the Dose.FC.CTG in the assay on ENR+CD organoids (setting [7]) is 0.156 log2 fold change; in the assay with ENR+CD organoids (setting [8]) it was −0.113 log2 fold change; in the assay on ENR+CD organoids (setting [9]), −0.021 log2 fold change; in the assay with ENR+CD organoids (setting [10]), −0.263 log2 fold change. Further, the Z.LYZ.NS in assay [1] (setting [3]) is listed as 0.200; in assay [1] (setting [4]), 0.273; in assay [1] (setting [5]) it was −0.315; in assay [1] (setting [6]), −0.670. Also, the Dose.FC.LYZ.NS is given as 0.023 log2 fold change in assay [1] (setting [7]), 0.031 log2 fold change in assay [1] (setting [8]), −0.036 log2 fold change in assay [1] (setting [9]) and −0.077 log2 fold change in assay [1] (setting [10]). Also, the Dose.FC.LYZ.S in assay [2] (setting [11]) is recorded as 0.069 log2 fold change; in assay [2] (setting [12]), 0.185 log2 fold change; in assay [2] (setting [13]) it was −0.062 log2 fold change; in assay [2] (setting [14]), −0.123 log2 fold change.
Take `Cc1ccc(NC(=O)c2ccc(CN3CCN(C)CC3)cc2)cc1Nc1nccc(-c2cccnc2)n1` [Imatinib (STI571)]: the “Dose.FC.CTG (log2 fold change)” value is −0.150 in the assay with ENR+CD organoids (primary screen, dose 0.08 uM); 0.079 with ENR+CD organoids (primary screen, dose 0.40 uM); 0.056 with ENR+CD organoids (primary screen, dose 2.00 uM); −0.034 with ENR+CD organoids (primary screen, dose 10.00 uM). Besides, the “Z.CTG (standard z score)” value is −0.357 with ENR+CD organoids (primary screen, dose 0.08 uM); 0.188 with ENR+CD organoids (primary screen, dose 0.40 uM); 0.135 with ENR+CD organoids (primary screen, dose 2.00 uM); −0.082 with ENR+CD organoids (primary screen, dose 10.00 uM). In addition, the “Dose.FC.LYZ.NS (log2 fold change)” value in assay [1] (primary screen, dose 0.08 uM) is 0.033; in assay [1] (primary screen, dose 0.40 uM), 0.012; in assay [1] (primary screen, dose 2.00 uM), 0.025; in assay [1] (primary screen, dose 10.00 uM) it was −0.038. Besides, the “Z.LYZ.NS (standard z score)” value is 0.284 in assay [1] (primary screen, dose 0.08 uM); 0.104 in assay [1] (primary screen, dose 0.40 uM); 0.217 in assay [1] (primary screen, dose 2.00 uM); −0.333 in assay [1] (primary screen, dose 10.00 uM). The “Dose.FC.LYZ.S (log2 fold change)” value is reported as 0.000 in assay [2] (dose 0.08 uM), 0.038 in assay [2] (dose 0.40 uM), −0.001 in assay [2] (dose 2.00 uM) and −0.037 in assay [2] (dose 10.00 uM).
Turning to `CN1CCC[C@@H]1CCO[C@](C)(c1ccccc1)c1ccc(Cl)cc1` [Clemastine Fumarate], the Dose.FC.CTG was 0.242 log2 fold change with ENR+CD organoids (primary screen, dose 0.08 uM); 0.036 log2 fold change in the assay on ENR+CD organoids (primary screen, dose 0.40 uM); 0.024 log2 fold change in the assay on ENR+CD organoids (primary screen, dose 2.00 uM); −0.424 log2 fold change in the assay on ENR+CD organoids (primary screen, dose 10.00 uM). For the same molecule, the Z.CTG was 0.578 in the assay with ENR+CD organoids (setting [19]), 0.086 with ENR+CD organoids (setting [20]), 0.058 with ENR+CD organoids (setting [21]) and −1.013 in the assay with ENR+CD organoids (setting [22]). Moreover, the Dose.FC.LYZ.NS is given as 0.024 log2 fold change in assay [1] (primary screen, dose 0.08 uM); −0.026 log2 fold change in assay [1] (primary screen, dose 0.40 uM); −0.014 log2 fold change in assay [1] (primary screen, dose 2.00 uM); −0.061 log2 fold change in assay [1] (primary screen, dose 10.00 uM). The Z.LYZ.NS in assay [1] (setting [19]) is given as 0.210; in assay [1] (setting [20]), −0.227; in assay [1] (setting [21]) it was −0.124; in assay [1] (setting [22]), −0.534. Moreover, the Dose.FC.LYZ.S in assay [2] (dose 0.08 uM) is reported as 0.096 log2 fold change; in assay [2] (dose 0.40 uM), −0.066 log2 fold change; in assay [2] (dose 2.00 uM), −0.048 log2 fold change; in assay [2] (dose 10.00 uM), 0.001 log2 fold change.
